According to US5824647A, “Chemotactic wound healing peptides” (priority 1995, dated 1998):

Assays:
[1] = tested on: infant foreskin fibroblasts; assay: Fibroblast proliferation, [3H]thymidine incorporation; type: cell-based; details: [3H]thymidine pulse after 72 h, harvest 24 h later; positive control human recombinant TGF-β1 (25 ng/ml)
Experimental: The peptides of the invention were also found to induce fibroblast proliferation in vitro. Fibroblast proliferation was measured in low passaged (fewer than 8) fibroblast cultures. Fibroblasts were added at low density (20,000 cells/well) to Falcon 3047 multiwell plates in maintenance medium. After incubation at 37° C. in a humidified atmosphere containing 5% CO2 for 16 h, the medium was removed from each well and replaced with 450 μl serum-free maintenance medium containing 0.1% BSA and 50 μl aliquots of sterilized test sample. Each sample being tested for mitogenic activity was added to triplicate wells. […] After 15 min. of repeated agitation of each multi-well plate, a 250 μl aliquot from each well was transferred to scintillation vials containing Bio-Safe II (Research Products International Corp., Mt. Prospect, Ill.), cooled for 4 h, and counted in a scintillation counter. Fibroblast proliferation was expressed as "Mean CPM±SEM" per well of the replicates. […]
Fibroblast proliferation experiments in response to the 7-mer peptides (peptides 368-374) were carried out as generally described above. […] All cultures were performed in triplicate and results were expressed as the means of triplicate values as counts per minute (CPM) per well. […]

[2] = tested on: infant foreskin fibroblasts; assay: Collagen production by fibroblasts (modified Peterofsky-Diegelman assay); type: cell-based, human; details: [3H]proline incorporation into collagenase-sensitive protein
[3] = tested on: fibroblasts, monocytes and neutrophils; assay: Chemotaxis assays expressed as Migration Index (cell type not separated); type: cell-based, human; details: cells migrating in response to peptide divided by cells migrating in response to medium; positive chemotactic control
Excerpt: The peptides of the invention induce chemotaxis of fibroblasts and inflammatory cells (neutrophils and monocytes/macro-phages) in in vitro assays. Assays for measuring chemotaxis induced by the peptides can utilize either fibroblasts or monocytes. The following sets forth a representative assay for measuring fibroblast chemotaxis induced by the peptides of the invention:
Peptides 280-293, 296-322, 328-354, 358-382 (SEQ ID NO. 16), 366-387 (SEQ ID NO. 11), 364-378 (SEQ ID NO. 6) and 368-374 (SEQ ID NO. 1) of Table I, whose sequences correspond to the designated regions of TGF-β1 were tested in chemotaxis assays for the ability to induce migration of fibroblasts, monocytes and neutrophils. The peptides were added to the lower compartments of modified Boyden chambers at the indicated concentration.
Because the peptides were tested in different experiments, migration was expressed as "Migration Index" which is obtained by dividing the number of cells migrating in response to medium into the number of cells migrating in response to each peptide. A positive chemotactic control, peptide 340-391 gave migration indices between 7-11.

| Substance | fibroblast proliferation / growth (in words) [1] | collagen production by fibroblasts (in words) [2] | collagen production by fibroblasts (in words) ([2]; listed as VYYVGRKK) | Migration Index [3] |
| --- | --- | --- | --- | --- |
| VYYVGRK [Peptide 368-374, 7-mer corresponding to amino acids 368-374 of TGF-β1] | most effective in inducing fibroblast growth, exceeding that obtained with human recombinant TGF-β1 | being the most potent | stimulated collagen production to some degree | – |
| 340-391: synthetic peptide corresponding to sequence 340-391 of TGF-β1; positive chemotactic control (VLALYNQHNPGASAAPCCVPQALEPLPIVYYVGRKPKVEQLSNMIVRSCKCS; printed: Val Leu Ala Leu Tyr Asn Gln His Asn Pro Gly Ala Ser Ala Ala Pro Cys Cys Val Pro Gln Ala Leu Glu Pro Leu Pro Ile Val Tyr Tyr Val Gly Arg Lys Pro Lys Val Glu Gln Leu Ser Asn Met Ile Val Arg Ser Cys Lys Cys Ser) [Peptide 340-391] | – | – | – | 7-11 |
